# Experimental data: ChEMBL document CHEMBL1201862, “PubChem BioAssay data set” (2004)
# The source made the active and inactive calls.
# Legend:
# [1] = biological target: Tyrosyl-DNA phosphodiesterase 2 (Homo sapiens, UniProt O95551); test: human TDP2 enzyme inhibitors, dose response, biochemical, epi absorbance, IC50 (AID 743297)
# [2] = HepG2 cell cytotoxicity, dose response, cytotoxicity control, cherry-picks, set 5 (AID 1053118); format: functional, cell-based
# Protein Wnt-3a = Protein Wnt-3a (Mus musculus, UniProt P27467); test: SAR analysis of small molecule antagonists of Gli-SUFU in a Wnt3a luminescent reporter assay.; format: functional
# [3] = biological target: Protein disulfide-isomerase A6 (Homo sapiens, UniProt Q15084); test: Secondary Assay for Selectivity of PDI Inhibitors (against ERp5) Measured in Biochemical System Using Plate Reader - 2137-04_Inhibitor_Dose_DryPowder_Activity_Set3.
# [4] = biological target: SWI/SNF-related matrix-associated actin-dependent regulator of chromatin subfamily A member 2 (Homo sapiens, UniProt P51531); test: Luminescence-based cell-based high throughput dose response assay to identify activators of the function of SWI/SNF related, matrix associated, actin dependent regulator of chromatin, subfamily a, member 2 (SMARCA2, BRM).; format: functional
# [5] = Counterscreen for activators of the function of SWI/SNF related, matrix associated, actin dependent regulator of chromatin, subfamily a, member 2 (SMARCA2, BRM): Luminescence-based cell-based high throughput dose response assay to identify non-selective compounds using the VP16 reporter assay.; format: functional
# SN12K1 = test: cells; format: functional; settings: Homo sapiens
# [6] = biological target: T1, Nuclear receptor subfamily 0 group B member 1 (Homo sapiens, UniProt P51843); format: functional, cell-based;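 also: HEK293T cells transfected with SF-1 and DAX-1 plus StAR promoter luciferase reporter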
# T1 sequence (P51843 whole entry): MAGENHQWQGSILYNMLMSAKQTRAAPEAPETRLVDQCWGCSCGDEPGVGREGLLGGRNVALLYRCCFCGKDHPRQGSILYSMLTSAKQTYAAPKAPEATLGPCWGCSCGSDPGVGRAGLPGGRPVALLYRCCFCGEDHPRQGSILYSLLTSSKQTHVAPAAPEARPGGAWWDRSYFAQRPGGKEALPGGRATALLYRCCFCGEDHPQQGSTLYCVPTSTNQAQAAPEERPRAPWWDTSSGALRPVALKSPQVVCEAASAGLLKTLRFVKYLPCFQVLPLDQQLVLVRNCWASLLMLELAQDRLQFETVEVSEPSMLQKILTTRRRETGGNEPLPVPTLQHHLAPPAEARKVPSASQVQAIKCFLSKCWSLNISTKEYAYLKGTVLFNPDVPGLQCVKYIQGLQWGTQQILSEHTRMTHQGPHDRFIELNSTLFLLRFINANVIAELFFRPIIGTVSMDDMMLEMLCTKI
# P388/ADR = test: cells; format: functional; settings: Mus musculus
# cells = format: functional, cell-based
# P388 = test: cells; format: functional; settings: Mus musculus
# Insulin-degrading enzyme [7] = biological target: T2, Insulin-degrading enzyme (Homo sapiens, UniProt P14735); test: activators of recombinant IDE enzyme, dose response, counter-screen for IDE activator project, biochemical, fluorescence polarization (AID 588681)
# T2 sequence (P14735 whole entry): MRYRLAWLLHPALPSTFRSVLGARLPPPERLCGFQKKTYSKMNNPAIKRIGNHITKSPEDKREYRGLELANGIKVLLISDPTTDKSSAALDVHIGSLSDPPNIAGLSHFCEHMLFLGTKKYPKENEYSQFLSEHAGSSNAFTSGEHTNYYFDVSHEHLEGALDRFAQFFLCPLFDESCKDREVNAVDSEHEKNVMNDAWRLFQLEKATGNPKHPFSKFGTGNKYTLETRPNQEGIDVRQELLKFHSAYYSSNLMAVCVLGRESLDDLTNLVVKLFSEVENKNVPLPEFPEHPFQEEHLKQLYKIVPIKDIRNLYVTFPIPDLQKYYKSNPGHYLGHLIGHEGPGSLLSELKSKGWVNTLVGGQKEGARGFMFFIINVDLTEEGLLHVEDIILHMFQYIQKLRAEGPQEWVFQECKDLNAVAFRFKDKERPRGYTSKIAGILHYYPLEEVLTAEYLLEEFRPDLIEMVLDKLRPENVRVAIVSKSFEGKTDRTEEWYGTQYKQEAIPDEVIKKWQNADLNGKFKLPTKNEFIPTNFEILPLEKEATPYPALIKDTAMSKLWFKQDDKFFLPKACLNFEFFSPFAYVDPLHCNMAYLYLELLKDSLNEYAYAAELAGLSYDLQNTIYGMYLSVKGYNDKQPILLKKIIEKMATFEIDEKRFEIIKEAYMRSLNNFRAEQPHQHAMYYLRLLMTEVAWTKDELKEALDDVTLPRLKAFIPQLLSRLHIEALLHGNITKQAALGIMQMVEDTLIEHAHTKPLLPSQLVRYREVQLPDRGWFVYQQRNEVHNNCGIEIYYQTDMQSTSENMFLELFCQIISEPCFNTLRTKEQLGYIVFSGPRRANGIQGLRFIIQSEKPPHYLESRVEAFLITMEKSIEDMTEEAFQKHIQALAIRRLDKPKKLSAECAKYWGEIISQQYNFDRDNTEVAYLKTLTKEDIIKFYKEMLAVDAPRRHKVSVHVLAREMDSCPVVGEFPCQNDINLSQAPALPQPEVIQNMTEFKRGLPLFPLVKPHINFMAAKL
# HEK293 [8] = test: optical interference in Abeta FP readout, dose response, artefact control for IDE activator project, biochemical, fluorescence polarization (AID 588442); format: functional, cell-based; settings: Homo sapiens
# Beta-lactamase [9] = biological target: Beta-lactamase (Pseudomonas aeruginosa, UniProt Q79MP6);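 also: biochemical dose-response test of metallo-beta-lactamase enzyme inhibition, read out by epi-absorbance; purified recombinant IMP-1 metallo-beta-lactamase with nitrocefin as substrate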
# Insulin-degrading enzyme [10] = biological target: T2, Insulin-degrading enzyme; test: activators of endogenous IDE in HEK cells, dose response, cell-based, fluorescence polarization (AID 588439); format: functional
# ORF 73 = biological target: T3, ORF 73 (Human herpesvirus 8, UniProt O40947); test: inhibitors of C-LANA binding to LBS DNA, dose response, biochemical, fluorescence polarization, cherry-picked samples (AID 504725); set-up: species or system Human gammaherpesvirus 8;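 also: fluorescence polarization of a labeled DNA duplex reporting LANA DNA binding; potency is for inhibitors that block LANA binding to the DNA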
# T3 sequence (O40947 whole entry): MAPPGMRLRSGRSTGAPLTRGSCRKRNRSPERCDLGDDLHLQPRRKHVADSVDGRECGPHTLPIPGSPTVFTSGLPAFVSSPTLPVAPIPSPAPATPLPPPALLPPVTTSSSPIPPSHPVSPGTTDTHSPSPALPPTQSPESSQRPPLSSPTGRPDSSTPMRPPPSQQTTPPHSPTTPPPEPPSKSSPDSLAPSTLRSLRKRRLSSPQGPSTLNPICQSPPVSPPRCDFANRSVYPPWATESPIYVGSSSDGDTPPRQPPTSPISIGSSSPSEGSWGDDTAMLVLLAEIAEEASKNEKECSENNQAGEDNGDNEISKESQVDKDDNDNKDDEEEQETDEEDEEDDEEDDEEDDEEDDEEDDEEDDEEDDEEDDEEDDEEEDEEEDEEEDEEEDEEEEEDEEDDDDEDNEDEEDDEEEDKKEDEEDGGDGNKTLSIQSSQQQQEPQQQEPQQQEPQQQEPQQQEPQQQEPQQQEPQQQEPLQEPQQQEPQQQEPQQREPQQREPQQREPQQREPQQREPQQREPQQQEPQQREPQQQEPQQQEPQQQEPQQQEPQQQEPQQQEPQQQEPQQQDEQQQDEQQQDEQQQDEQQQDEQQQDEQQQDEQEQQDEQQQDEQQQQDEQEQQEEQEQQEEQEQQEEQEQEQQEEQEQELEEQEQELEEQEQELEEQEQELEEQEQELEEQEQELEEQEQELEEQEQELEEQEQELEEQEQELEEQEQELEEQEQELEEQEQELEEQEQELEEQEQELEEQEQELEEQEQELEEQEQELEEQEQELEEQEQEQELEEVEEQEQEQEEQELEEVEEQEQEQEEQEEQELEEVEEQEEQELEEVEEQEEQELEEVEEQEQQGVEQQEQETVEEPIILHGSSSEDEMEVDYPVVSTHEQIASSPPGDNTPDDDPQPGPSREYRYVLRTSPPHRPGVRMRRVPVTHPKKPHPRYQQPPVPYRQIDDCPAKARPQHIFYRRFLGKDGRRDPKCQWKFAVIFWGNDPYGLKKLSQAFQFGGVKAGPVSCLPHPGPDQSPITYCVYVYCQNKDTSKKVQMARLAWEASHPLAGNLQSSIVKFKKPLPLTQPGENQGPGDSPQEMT
# Beta-lactamase [11] = biological target: Beta-lactamase (Salmonella choleraesuis (strain SC-B67), UniProt Q5J463)
# HEK293 [12] = test: HEK cell cytotoxicity by LDH release, dose response, cytotoxicity control for IDE activator project, fluorescence, HEK cells (AID 588440); format: functional, cell-based; settings: Homo sapiens;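 also: cytotoxicity by LDH release measuring loss of membrane integrity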
# Sequence of Protein disulfide-isomerase A6 (Q15084 whole entry): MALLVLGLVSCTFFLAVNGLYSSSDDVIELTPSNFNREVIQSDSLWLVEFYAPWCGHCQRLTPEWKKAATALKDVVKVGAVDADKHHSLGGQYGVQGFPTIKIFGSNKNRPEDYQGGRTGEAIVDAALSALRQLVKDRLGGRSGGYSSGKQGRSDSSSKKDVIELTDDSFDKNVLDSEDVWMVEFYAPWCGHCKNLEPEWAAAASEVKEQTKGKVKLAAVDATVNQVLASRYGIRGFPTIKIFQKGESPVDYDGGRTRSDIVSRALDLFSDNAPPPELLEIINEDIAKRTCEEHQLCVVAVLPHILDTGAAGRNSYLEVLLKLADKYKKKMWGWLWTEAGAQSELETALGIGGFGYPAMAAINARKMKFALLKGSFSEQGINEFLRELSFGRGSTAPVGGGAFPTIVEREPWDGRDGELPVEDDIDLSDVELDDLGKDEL
# Sequence of Beta-lactamase (Pseudomonas aeruginosa, UniProt Q79MP6) (Q79MP6 whole entry): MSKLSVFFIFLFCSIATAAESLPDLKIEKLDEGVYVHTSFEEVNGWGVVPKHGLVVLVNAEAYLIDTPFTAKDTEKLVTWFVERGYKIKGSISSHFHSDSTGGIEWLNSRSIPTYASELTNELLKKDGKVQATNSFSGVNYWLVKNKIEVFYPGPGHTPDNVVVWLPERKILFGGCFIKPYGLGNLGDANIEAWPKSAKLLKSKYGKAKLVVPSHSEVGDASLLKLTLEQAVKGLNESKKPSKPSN
# Sequence of Tyrosyl-DNA phosphodiesterase 2 (O95551 whole entry): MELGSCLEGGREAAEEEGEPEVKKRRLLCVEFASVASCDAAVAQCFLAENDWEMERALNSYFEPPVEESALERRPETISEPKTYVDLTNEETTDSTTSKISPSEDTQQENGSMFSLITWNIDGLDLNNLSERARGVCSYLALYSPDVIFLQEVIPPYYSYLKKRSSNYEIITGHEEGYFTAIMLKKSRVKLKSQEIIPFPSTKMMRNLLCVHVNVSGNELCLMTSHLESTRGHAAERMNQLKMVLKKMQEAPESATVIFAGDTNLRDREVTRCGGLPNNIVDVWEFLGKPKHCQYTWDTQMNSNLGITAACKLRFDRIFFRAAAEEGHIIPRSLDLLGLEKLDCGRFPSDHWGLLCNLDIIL
# Sequence of SWI/SNF-related matrix-associated actin-dependent regulator of chromatin subfamily A member 2 (P51531 whole entry): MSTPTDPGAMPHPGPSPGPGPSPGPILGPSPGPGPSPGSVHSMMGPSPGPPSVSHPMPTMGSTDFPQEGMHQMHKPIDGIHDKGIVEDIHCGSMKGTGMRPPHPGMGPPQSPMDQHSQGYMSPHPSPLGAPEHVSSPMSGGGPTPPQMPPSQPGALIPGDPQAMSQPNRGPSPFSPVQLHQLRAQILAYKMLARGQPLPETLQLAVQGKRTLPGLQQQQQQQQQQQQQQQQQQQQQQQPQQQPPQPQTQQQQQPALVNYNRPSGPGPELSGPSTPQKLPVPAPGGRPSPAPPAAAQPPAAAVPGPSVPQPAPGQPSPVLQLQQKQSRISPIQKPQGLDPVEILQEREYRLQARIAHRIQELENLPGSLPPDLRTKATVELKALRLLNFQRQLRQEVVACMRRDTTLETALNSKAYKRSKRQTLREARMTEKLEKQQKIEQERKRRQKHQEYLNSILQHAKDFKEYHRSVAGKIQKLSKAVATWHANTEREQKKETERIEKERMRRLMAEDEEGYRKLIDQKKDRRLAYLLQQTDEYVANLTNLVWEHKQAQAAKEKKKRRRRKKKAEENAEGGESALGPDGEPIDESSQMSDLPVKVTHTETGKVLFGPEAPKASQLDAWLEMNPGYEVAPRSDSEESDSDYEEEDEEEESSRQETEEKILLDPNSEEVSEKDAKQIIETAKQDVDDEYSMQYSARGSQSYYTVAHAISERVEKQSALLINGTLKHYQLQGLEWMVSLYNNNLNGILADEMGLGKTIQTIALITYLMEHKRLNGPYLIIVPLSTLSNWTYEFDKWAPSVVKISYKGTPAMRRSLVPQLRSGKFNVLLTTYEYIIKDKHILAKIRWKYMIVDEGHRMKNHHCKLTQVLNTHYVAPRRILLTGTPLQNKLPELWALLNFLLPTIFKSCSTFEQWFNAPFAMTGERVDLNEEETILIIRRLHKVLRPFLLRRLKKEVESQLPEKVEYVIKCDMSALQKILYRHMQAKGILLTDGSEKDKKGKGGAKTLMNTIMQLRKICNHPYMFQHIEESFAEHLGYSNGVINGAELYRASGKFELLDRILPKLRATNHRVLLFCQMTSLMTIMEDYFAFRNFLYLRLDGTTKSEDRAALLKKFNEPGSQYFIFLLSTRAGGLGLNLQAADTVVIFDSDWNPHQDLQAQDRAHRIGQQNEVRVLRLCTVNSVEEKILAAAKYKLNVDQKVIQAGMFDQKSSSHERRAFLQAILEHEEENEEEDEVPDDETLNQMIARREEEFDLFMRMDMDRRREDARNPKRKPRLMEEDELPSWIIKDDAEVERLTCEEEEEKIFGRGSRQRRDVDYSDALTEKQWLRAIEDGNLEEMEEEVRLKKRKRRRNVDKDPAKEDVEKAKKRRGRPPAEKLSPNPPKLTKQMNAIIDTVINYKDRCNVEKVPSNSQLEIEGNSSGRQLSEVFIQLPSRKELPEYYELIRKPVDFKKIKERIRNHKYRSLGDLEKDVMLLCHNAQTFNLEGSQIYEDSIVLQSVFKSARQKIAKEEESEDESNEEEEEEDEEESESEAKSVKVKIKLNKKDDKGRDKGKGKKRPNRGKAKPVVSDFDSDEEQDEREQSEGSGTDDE
# Sequence of Beta-lactamase (Salmonella choleraesuis (strain SC-B67), UniProt Q5J463) (Q5J463 whole entry): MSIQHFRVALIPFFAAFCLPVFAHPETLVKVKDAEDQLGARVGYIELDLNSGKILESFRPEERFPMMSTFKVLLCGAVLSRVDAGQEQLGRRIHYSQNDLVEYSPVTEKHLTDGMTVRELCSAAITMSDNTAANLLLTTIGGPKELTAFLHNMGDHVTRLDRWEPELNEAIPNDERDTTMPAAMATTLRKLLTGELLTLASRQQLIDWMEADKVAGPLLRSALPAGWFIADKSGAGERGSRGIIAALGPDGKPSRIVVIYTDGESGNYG
# Sequence of Protein Wnt-3a (P27467 whole entry): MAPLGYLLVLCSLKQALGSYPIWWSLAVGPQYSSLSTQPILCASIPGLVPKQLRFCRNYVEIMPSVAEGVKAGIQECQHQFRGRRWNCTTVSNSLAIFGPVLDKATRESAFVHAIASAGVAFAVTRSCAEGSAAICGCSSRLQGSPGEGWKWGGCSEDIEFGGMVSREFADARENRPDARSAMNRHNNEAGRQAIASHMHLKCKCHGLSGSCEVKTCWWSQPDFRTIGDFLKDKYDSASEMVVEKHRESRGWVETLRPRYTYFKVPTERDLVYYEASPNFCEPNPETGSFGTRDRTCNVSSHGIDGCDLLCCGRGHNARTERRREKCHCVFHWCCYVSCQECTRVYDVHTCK
structure (smiles),measurement,setting,value
COc1ccc(-n2[nH]c(C)cc2=O)cc1,IC50,[1],> 128 µM (inactive)
COCC(=O)Nc1ccc2c(c1)C(=O)N(C)[C@@H]1CC[C@H](CC(=O)NCc3ccccc3Cl)O[C@H]1CO2,AC50,[2],> 52 µM (inactive)
CCCCN(C)c1cc(NC(=O)c2ccccc2)ncn1,IC50,Protein Wnt-3a,> 21.8 µM (inactive)
C/C1=C\[C@@H](O)C(C)(C)CCCC2(C)OC2C[C@@H]1OC(=O)c1ccc(O)cc1 (stereo partly drawn),AC50,[3],5 µM (active)
Nc1ccc(S(=O)(=O)Nc2cnc3c(Cl)cccc3n2)cc1 [CHLORSULFAQUINOXALINE],EC50,[4],> 91.2 µM (inactive)
same,EC50,[5],> 91.2 µM (inactive)
same,GI50,SN12K1,117 µM (inactive)
same,IC50,[6],> 67.5 µM (inactive)
same,GI50,P388/ADR,128 µM (inactive)
same,IC50,cells,> 67.5 µM (inactive)
same,GI50,P388,87.1 µM (inactive)
CC(=O)Oc1ccc2c(c1)Oc1cc(OC(C)=O)ccc1C21OC(=O)c2ccccc21 [FLUORESCEIN DIACETATE],EC50,Insulin-degrading enzyme [7],> 54.7 µM (inactive)
same,EC50,HEK293 [8],> 54.7 µM (inactive)
same,IC50,Beta-lactamase [9],> 59.6 µM (inactive)
same,EC50,Insulin-degrading enzyme [10],> 54.7 µM (inactive)
same,AC50,ORF 73,0.042 µM (active)
same,IC50,Beta-lactamase [11],> 59.6 µM (inactive)
same,IC50,HEK293 [12],> 89.2 µM (inactive)
